Assay results as given in patent US20240008524A1, “CONSUMABLE” (Nicoventures Trading Limited, priority 2020, published 2024).
Values after ≈ are worked out from the molar mass of the structure shown.

Test: Water solubility of flavoring agents and their flavor glucosides
Conditions: not given

| Molecule | increase of water solubility (glucoside vs flavoring agent) | Flavoring Agent water solubility |
| --- | --- | --- |
| COc1cc(CO)ccc1O[C@@H]1O[C@H](CO)[C@@H](O)[C@H](O)[C@H]1O [Vanillin-Alcohol glucoside, 3-methoxy-benzyl alcohol-4-O-β-D-glucopyranoside] | 32 × |  |
| Cc1ccc(C(C)C)cc1O [Carvacrol] |  | 1.25 mg/mL |

Same assay, conditions: flavoring agent in the form of its flavor glucoside; water

| Molecule | Glucoside water solubility |
| --- | --- |
| (2/5)-ethyl-5 (or 2)-methyl-3(2H)-furanone-4-O-β-D-glucopyranoside [Homofuraneol glucoside] | 749 mg/mL |
| CC1=C(O[C@@H]2O[C@H](CO)[C@@H](O)[C@H](O)[C@H]2O)C(=O)OC1C (stereo partly drawn) [Sotolon glucoside, 4,5-dimethylfuran-2(5H)-one-3-O-β-D-glucopyranoside] | 502 mg/mL |
| C=CCc1ccc(O[C@@H]2O[C@H](CO)[C@@H](O)[C@H](O)[C@H]2O)c(OC)c1 [Eugenol glucoside, 2-methoxy-4-(2-propen-1-yl)phenyl-O-β-D-glucopyranoside] | 15.1 mg/mL |
| CCc1occc(=O)c1O[C@@H]1O[C@H](CO)[C@@H](O)[C@H](O)[C@H]1O [Ethylmaltol glucoside, 2-ethyl-4H-pyran-4-one-3-O-β-D-glucopyranoside] | 662 mg/mL |
| CCC1OC(=O)C(O[C@@H]2O[C@H](CO)[C@@H](O)[C@H](O)[C@H]2O)=C1C (stereo partly drawn) [Maple furanone glucoside, 5-ethyl-3-hydroxy-4-methyl-2(5H)-furanone-3-O-β-D-glucopyranoside] | 772 mg/mL |
| COC(=O)c1ccccc1N[C@@H]1O[C@H](CO)[C@@H](O)[C@H](O)[C@H]1O [Methylanthranilate glucoside, methyl-2-aminobenzoate-N-β-D-glucopyranoside] | 35 mg/mL |
| CC/C=C\CCO[C@@H]1O[C@H](CO)[C@@H](O)[C@H](O)[C@H]1O [cis-3-Hexen-1-ol glucoside, (3Z)-3-hexen-1-yl-O-β-D-glucopyranoside] | 598 mg/mL |
| Cc1occc(=O)c1O[C@@H]1O[C@H](CO)[C@@H](O)[C@H](O)[C@H]1O [Maltol glucoside, 2-methyl-4H-pyran-4-one-3-O-β-D-glucopyranoside] | 535 mg/mL |
| CC(C)=CCCC(C)CCO[C@@H]1O[C@H](CO)[C@@H](O)[C@H](O)[C@H]1O (stereo partly drawn) [Citronellol glucoside, 3,7-dimethyl-6-octen-1-yl-O-β-D-glucopyranoside] | 519 mg/mL |
| C=CC(C)(CCC=C(C)C)O[C@@H]1O[C@H](CO)[C@@H](O)[C@H](O)[C@H]1O (stereo partly drawn) [Linalool glucoside, 1-ethenyl-1,5-dimethyl-4-hexen-1-yl-O-β-D-glucopyranoside] | 564 mg/mL |
| CC12CCC(C1)C(C)(C)C2O[C@@H]1O[C@H](CO)[C@@H](O)[C@H](O)[C@H]1O (stereo partly drawn) [Fenchol glucoside, 1,3,3-trimethyl-bicyclo[2.2.1]heptan-2-yl-O-β-D-glucopyranoside] | 4 mg/mL |
| COc1cc(CO)ccc1O[C@@H]1O[C@H](CO)[C@@H](O)[C@H](O)[C@H]1O [Vanillin-Alcohol glucoside, 3-methoxy-benzyl alcohol-4-O-β-D-glucopyranoside] | 62 mg/mL |
| CC1(C)C2CC=C(CO[C@@H]3O[C@H](CO)[C@@H](O)[C@H](O)[C@H]3O)C1C2 (stereo partly drawn) [Myrtenol glucoside, 6,6-dimethylbicyclo(3.1.1)hept-2-ene-2-methyl-O-β-D-glucopyranoside] | 525 mg/mL |
| C=CC(CCCCC)O[C@@H]1O[C@H](CO)[C@@H](O)[C@H](O)[C@H]1O (stereo partly drawn) [1-Octen-3-ol glucoside, 1-octen-3-yl-O-β-D-glucopyranoside] | 200 mg/mL |
| (S)-2-(4-methyl-3-cyclohexenyl)-2-propanyl-O-β-D-glucopyranoside [Alpha-Terpineol glucoside] | 172 mg/mL |
| CC1=C(O[C@@H]2O[C@H](CO)[C@@H](O)[C@H](O)[C@H]2O)C(=O)C(C)O1 (stereo partly drawn) [Furaneol glucoside, 2,5-dimethyl-3(2H)-furanone-4-O-β-D-glucopyranoside] | 731 mg/mL |
| OC[C@H]1O[C@@H](OCCc2ccccc2)[C@H](O)[C@@H](O)[C@@H]1O [2-Phenylethanol glucoside, 2-phenyleth-1-yl-O-β-D-glucopyranoside] | 833 mg/mL |
| CC(C)=CCC/C(C)=C\CO[C@@H]1O[C@H](CO)[C@@H](O)[C@H](O)[C@H]1O [Nerol glucoside, (2Z)-3,7-dimethyl-2,6-octadien-1-yl-O-β-D-glucopyranoside] | 16.6 mg/mL |
| C=C(C)C1CC=C(CO[C@@H]2O[C@H](CO)[C@@H](O)[C@H](O)[C@H]2O)CC1 (stereo partly drawn) [Perillyl alcohol glucoside, p-mentha-1,8-dien-7-yl-O-β-D-glucopyranoside] | 485 mg/mL |
| CC(C)=CCC/C(C)=C/CO[C@@H]1O[C@H](CO)[C@@H](O)[C@H](O)[C@H]1O [Geraniol glucoside, (2E)-3,7-dimethyl-2,6-octadien-1-yl-O-β-D-glucopyranoside] | 627 mg/mL |
| CC(C)=CCCC(C)=CCCC(C)=CCO[C@@H]1O[C@H](CO)[C@@H](O)[C@H](O)[C@H]1O [Farnesol glucoside, 3,7,11-trimethyl-2,6,10-dodecatrien-1-yl-O-β-D-glucopyranoside] | 1 mg/mL |
| CCCCCCO[C@@H]1O[C@H](CO)[C@@H](O)[C@H](O)[C@H]1O [1-Hexanol glucoside, hex-1-yl-O-β-D-glucopyranoside] | 676 mg/mL |

Same assay, conditions: free flavoring agent, not bound to sugar; water

| Molecule | Flavoring Agent water solubility |
| --- | --- |
| CCc1occc(=O)c1O [Ethylmaltol] | 24.23 mg/mL |
| OCCc1ccccc1 [2-Phenylethanol] | 21.99 mg/mL |
| CCC1OC(C)=C(O)C1=O (centres unmarked) [Homofuraneol] | 6.178 mg/mL |
| COc1cc(CO)ccc1O [Vanillin-Alcohol] | 2 mg/mL |
| CC1=C(O)C(=O)OC1C (centres unmarked) [Sotolon] | 22.28 mg/mL |
| Oc1ccc2c(c1)OCO2 [Sesamol] | 14.65 mg/mL |
| CCC1OC(=O)C(O)=C1C (centres unmarked) [Maple furanone] | 74.39 mg/mL |
| CC1(C)C2CC=C(CO)C1C2 (centres unmarked) [Myrtenol] | 0.261 mg/mL |

Same assay, conditions: free flavoring agent; at 25° C.

| Molecule | water solubility |
| --- | --- |
| COc1cc(CO)ccc1O [Vanillin-Alcohol] | approximately 2 g/I |

Same assay, conditions: water

| Molecule | solubility |
| --- | --- |
| CC(C)=CCC/C(C)=C/CO [Geraniol] | 0.1 mg/mL (≈ 0.648 mM) |
| CC12CCC(C1)C(C)(C)C2O (centres unmarked) [Fenchol] | 0.461 mg/mL (≈ 2.99 mM) |
| C=CC(O)CCCCC (centres unmarked) [1-Octen-3-ol] | 1.84 mg/mL (≈ 14.3 mM) |
| CC(C)=CCC/C(C)=C\CO [Nerol] | 0.256 mg/mL (≈ 1.66 mM) |
| Cc1occc(=O)c1O [Maltol] | 10.9 mg/mL (≈ 86.4 mM) |
| CC1=C(O)C(=O)C(C)O1 (centres unmarked) [Furaneol] | 18.5 mg/mL (≈ 144 mM) |
| C=C(C)[C@@H]1CC=C(CO)CC1 [Perillyl alcohol] | 0.471 mg/mL (≈ 3.09 mM) |
| CC1CCC(C(C)C)C(O)C1 (centres unmarked) [Menthol] | 0.49 mg/mL (≈ 3.14 mM) |
| CC(C)=CCCC(C)CCO (centres unmarked) [Citronellol] | 0.106 mg/mL (≈ 0.678 mM) |
| CC(C)=CCCC(C)=CCCC(C)=CCO [Farnesol] | 0.00129 mg/mL (≈ 0.0058 mM) |
| C=CC(C)(O)CCC=C(C)C (centres unmarked) [Linalool] | 0.68 mg/mL (≈ 4.41 mM) |
| C=CCc1ccc(O)c(OC)c1 [Eugenol] | 2.46 mg/mL (≈ 15 mM) |
| CC1=CCC(C(C)(C)O)CC1 (stereo not drawn) [Alpha-Terpineol] | 0.71 mg/mL (≈ 4.6 mM) |
| CC/C=C\CCO [cis-3-Hexen-1-ol] | 16 mg/mL (≈ 160 mM) |
